Source: US20160287589A1, “SUBSTITUTED-IMIDAZOPYRIDAZINES” (BAYER PHARMA AKTIENGESELLSCHAFT, priority 2013, published 2016)

Key:
MKNK1 [1] = target: T1, MKNK1 (Homo sapiens, UniProt Q9BUB5, T385D); assay: MKNK1 kinase assay (MKNK1 TR-FRET assay); format: biochemical; details: Table 1c; 10 μM ATP, 15 min preincubation
T1 construct: GST (N); purchased Carna Biosciences 02-145; host or cells: insect cells (baculovirus expression system)

MKNK1 [2] = target: T1, MKNK1; assay: MKNK1 kinase high ATP assay (TR-FRET-based); format: biochemical; details: Table 2c; 2 mM ATP, 15 min preincubation
Summary of the method: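 GST-tagged full-length human MKNK1 (aa 1-424, T344D) from insect cells, preincubated with compound 15 min at 22 °C. Reaction 30 min at 22 °C with 2 mM ATP and 0.06 μM biotinylated peptide in HEPES pH 7.5, Mg2+, DTT. Phosphopeptide detected by TR-FRET (665/622 ratio) with anti-pS6 (pSer236) antibody; normalised to no-inhibitor and no-enzyme controls.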

T1 sequence (Q9BUB5 1-424 isoform Q9BUB5-2 T344D): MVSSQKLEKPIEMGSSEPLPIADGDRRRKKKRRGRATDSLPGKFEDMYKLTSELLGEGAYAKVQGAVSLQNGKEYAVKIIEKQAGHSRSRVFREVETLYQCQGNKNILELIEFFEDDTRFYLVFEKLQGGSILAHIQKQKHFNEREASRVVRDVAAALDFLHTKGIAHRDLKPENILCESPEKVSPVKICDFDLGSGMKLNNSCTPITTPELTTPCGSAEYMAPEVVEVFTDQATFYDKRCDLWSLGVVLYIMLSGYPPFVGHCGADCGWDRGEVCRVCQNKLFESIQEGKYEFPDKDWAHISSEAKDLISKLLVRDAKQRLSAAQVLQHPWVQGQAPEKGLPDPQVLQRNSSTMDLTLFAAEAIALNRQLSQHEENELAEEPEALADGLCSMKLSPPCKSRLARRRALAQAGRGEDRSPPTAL

SMILES | IC50 (MKNK1 [1]) [nM] | IC50 (MKNK1 [2]) [nM]
C[C@H](N)COc1ccc2ncc(-c3cc4c(N(C)CCCN5CCCC5)nccc4o3)n2n1 [III-12, 2-(6-{[(2S)-2-Aminopropyl]oxy}imidazo[1,2-b]pyridazin-3-yl)-N-methyl-N-[3-(pyrrolidin-1-yl)propyl]furo[3,2-c]pyridin-4-amine] | 8.6 | 43.1
C[C@H](N)COc1ccc2ncc(-c3cc4c(N(C)C5CCN(C)CC5)nccc4o3)n2n1 [III-13, 2-(6-{[(2S)-2-Aminopropyl]oxy}imidazo[1,2-b]pyridazin-3-yl)-N-methyl-N-(1-methylpiperidin-4-yl)furo[3,2-c]pyridin-4-amine] | 13 | 62
C[C@H](N)COc1ccc2ncc(-c3cc4c(N5CCC[C@@H]5CO)nccc4o3)n2n1 [III-14, {(2R)-1-[2-(6-{[(2S)-2-Aminopropyl]oxy}imidazo[1,2-b]pyridazin-3-yl)furo-[3,2-c]pyridin-4-yl]pyrrolidin-2-yl}methanol] | 6.9 | 17.9
C[C@H](N)COc1ccc2ncc(-c3cc4c(N5CCN(C(=O)OC(C)(C)C)CC5)nccc4o3)n2n1 [III-15, tert-Butyl 4-[2-(6-{[(2S)-2-aminopropyl]oxy}imidazo[1,2-b]pyridazin-3-yl)furo[3,2-c]pyridin-4-yl]piperazine-1-carboxylate] | 31 | 78.4
COCCN(C)c1nccc2oc(-c3cnc4ccc(OC[C@H](C)N)nn34)cc12 [III-16, 2-(6-{[(2S)-2-Aminopropyl]oxy}imidazo[1,2-b]pyridazin-3-yl)-N-(2-methoxyethyl)-N-methylfuro[3,2-c]pyridin-4-amine] | 2.1 | 6
C[C@H](N)COc1ccc2ncc(-c3cc4c(N5CCNCC5)nccc4o3)n2n1 [III-17, (2S)-1-({3-[4-(Piperazin-1-yl)furo[3,2-c]pyridin-2-yl]imidazo[1,2-b]pyridazin-6-yl}oxy)propan-2-amine] | 18.3 | 44.2
CCN(CCOC)c1nccc2oc(-c3cnc4ccc(OC[C@H](C)N)nn34)cc12 [III-18, 2-(6-{[(2S)-2-Aminopropyl]oxy}imidazo[1,2-b]pyridazin-3-yl)-N-ethyl-N-(2-methoxyethyl)furo[3,2-c]pyridin-4-amine] | 0.7 | 0.9
C[C@H](N)COc1ccc2ncc(-c3cc4c(N5C[C@@H](C)O[C@@H](C)C5)nccc4o3)n2n1 [III-19, (2S)-1-[(3-{4-[(2R,6S)-2,6-Dimethylmorpholin-4-yl]furo[3,2-c]pyridin-2-yl}imidazo[1,2-b]pyridazin-6-yl)oxy]propan-2-amine] | 12.2 | 42.7
C[C@H](N)COc1ccc2ncc(-c3cc4c(N(C)CCCO)nccc4o3)n2n1 [III-20, 3-{[2-(6-{[(2S)-2-Aminopropyl]oxy}imidazo[1,2-b]pyridazin-3-yl)furo[3,2-c]pyridin-4-yl](methyl)amino}propan-1-ol] | 3.9 | 10.5
C[C@H](N)COc1ccc2ncc(-c3cc4c(N5CCC(N(C)C)CC5)nccc4o3)n2n1 [III-21, 1-[2-(6-{[(2S)-2-Aminopropyl]oxy}imidazo[1,2-b]pyridazin-3-yl)furo[3,2-c]pyridin-4-yl]-N,N-dimethylpiperidin-4-amine] | 12 | 33.2
C[C@H](N)COc1ccc2ncc(-c3cc4c(N5CCC(CO)CC5)nccc4o3)n2n1 [III-22, {1-[2-(6-{[(2S)-2-Aminopropyl]oxy}imidazo[1,2-b]pyridazin-3-yl)furo[3,2-c]pyridin-4-yl]piperidin-4-yl}methanol] | 6.5 | 14.1
C[C@H](N)COc1ccc2ncc(-c3cc4c(N5CCN(c6ccccc6)CC5)nccc4o3)n2n1 [III-23, (2S)-1-({3-[4-(4-Phenylpiperazin-1-yl)furo[3,2-c]pyridin-2-yl]imidazo[1,2-b]pyridazin-6-yl}oxy)propan-2-amine] | 16.6 | 45
COC[C@H]1CCCN1c1nccc2oc(-c3cnc4ccc(OC[C@H](C)N)nn34)cc12 [III-24, (2S)-1-[(3-{4-[(2R)-2-(Methoxymethyl)pyrrolidin-1-yl]furo[3,2-c]pyridin-2-yl}imidazo[1,2-b]pyridazin-6-yl)oxy]propan-2-amine] | 0.4 | 8.6
C[C@H](N)COc1ccc2ncc(-c3cc4c(N5CCOC[C@H]5C)nccc4o3)n2n1 [III-25, (2S)-1-[(3-{4-[(3R)-3-Methylmorpholin-4-yl]furo[3,2-c]pyridin-2-yl}imidazo-[1,2-b]pyridazin-6-yl)oxy]propan-2-amine] | 9.2 | 13.7
CCN(CCOC(C)(C)C)c1nccc2oc(-c3cnc4ccc(OC[C@H](C)N)nn34)cc12 [III-26, 2-(6-{[(2S)-2-Aminopropyl]oxy}imidazo[1,2-b]pyridazin-3-yl)-N-(2-tert-butoxyethyl)-N-ethylfuro[3,2-c]pyridin-4-amine] | 1.7 | 0.8
COC[C@@H]1CCCN1c1nccc2oc(-c3cnc4ccc(OC[C@H](C)N)nn34)cc12 [III-27, (2S)-1-[(3-{4-[(2S)-2-(Methoxymethyl)pyrrolidin-1-yl]furo[3,2-c]pyridin-2-yl}imidazo[1,2-b]pyridazin-6-yl)oxy]propan-2-amine] | 31.1 | 97.5
C[C@H](CN)Oc1ccc2ncc(-c3cc4c(N5CCOCC5)nccc4o3)n2n1 [III-30, (2R)-2-({3-[4-(Morpholin-4-yl)furo[3,2-c]pyridin-2-yl]imidazo[1,2-b]pyridazin-6-yl}oxy)propan-1-amine] | 5 | 10.4
COC[C@H]1CCCN1c1nccc2oc(-c3cnc4ccc(O[C@H](C)CN)nn34)cc12 [III-31, (2R)-2-[(3-{4-[(2R)-2-(Methoxymethyl)pyrrolidin-1-yl]furo[3,2-c]pyridin-2-yl}imidazo[1,2-b]pyridazin-6-yl)oxy]propan-1-amine] | 0.5 | 3
CCN(CCOC)c1nccc2oc(-c3cnc4ccc(O[C@H](C)CN)nn34)cc12 [III-32, 2-(6-{[(2R)-1-Aminopropan-2-yl]oxy}imidazo[1,2-b]pyridazin-3-yl)-N-ethyl-N-(2-methoxyethyl)furo[3,2-c]pyridin-4-amine] | 0.6 | 1.5
CCCN(CCOC)c1nccc2oc(-c3cnc4ccc(O[C@H](C)CN)nn34)cc12 [III-33, 2-(6-{[(2R)-1-Aminopropan-2-yl]oxy}imidazo[1,2-b]pyridazin-3-yl)-N-(2-methoxyethyl)-N-propylfuro[3,2-c]pyridin-4-amine] | 1.1 | 1.3
COCCN(C)c1nccc2oc(-c3cnc4ccc(O[C@H](C)CN)nn34)cc12 [III-34, 2-(6-{[(2R)-1-Aminopropan-2-yl]oxy}imidazo[1,2-b]pyridazin-3-yl)-N-(2-methoxyethyl)-N-methylfuro[3,2-c]pyridin-4-amine] | 3.5 | 7.4
CCN(CCOC)c1nccc2oc(-c3cnc4ccc(OC[C@@H]5COCCN5)nn34)cc12 [III-35, N-Ethyl-N-(2-methoxyethyl)-2-{6-[(3S)-morpholin-3-ylmethoxy]imidazo[1,2-b]pyridazin-3-yl}furo[3,2-c]pyridin-4-amine] | 1 | 0.9
c1cc2oc(-c3cnc4ccc(OC[C@@H]5COCCN5)nn34)cc2c(N2CCOCC2)n1 [III-36, 3-[4-(Morpholin-4-yl)furo[3,2-c]pyridin-2-yl]-6-[(3S)-morpholin-3-ylmethoxy]imidazo[1,2-b]pyridazine] | 11.6 | 37.3
COC[C@H]1CCCN1c1nccc2oc(-c3cnc4ccc(OC[C@@H]5COCCN5)nn34)cc12 [III-37, 3-{4-[(2R)-2-(Methoxymethyl)pyrrolidin-1-yl]furo[3,2-c]pyridin-2-yl}-6-[(3S)-morpholin-3-ylmethoxy]imidazo[1,2-b]pyridazine] | 1.1 | 11.1
CCN(CCOC)c1nccc2oc(-c3cnc4ccc(OC[C@H]5COCCN5)nn34)cc12 [III-38, N-Ethyl-N-(2-methoxyethyl)-2-{6-[(3R)-morpholin-3-ylmethoxy]imidazo[1,2-b]pyridazin-3-yl}furo[3,2-c]pyridin-4-amine] | 0.5 | 4.8
CCN(CCOC(C)(C)C)c1nccc2oc(-c3cnc4ccc(OC[C@@H]5COCCN5)nn34)cc12 [III-39, N-(2-tert-Butoxyethyl)-N-ethyl-2-{6-[(3S)-morpholin-3-ylmethoxy]imidazo-[1,2-b]pyridazin-3-yl}furo[3,2-c]pyridin-4-amine] | 0.9 | 0.5
CCN(CCO)c1nccc2oc(-c3cnc4ccc(OC[C@@H]5COCCN5)nn34)cc12 [III-40, 2-[Ethyl(2-{6-[(3S)-morpholin-3-ylmethoxy]imidazo[1,2-b]pyridazin-3-yl}furo[3,2-c]pyridin-4-yl)amino]ethanol] | 1.5 | 2.6
CCN(CCOC)c1nccc2oc(-c3cnc4ccc(OCC5CCCCN5)nn34)cc12 (stereo not drawn) [III-41, N-Ethyl-N-(2-methoxyethyl)-2-[6-(piperidin-2-ylmethoxy)imidazo[1,2-b]pyridazin-3-yl]furo[3,2-c]pyridin-4-amine] | 12 | 17.6
CS(=O)(=O)CCCOc1ccc2ncc(-c3cc4c(N5CCOCC5)nccc4o3)n2n1 [III-42, 6-[3-(Methylsulfonyl)propoxy]-3-[4-(morpholin-4-yl)furo[3,2-c]pyridin-2-yl]imidazo[1,2-b]pyridazine] | 2.2 | 4.7
CN1CCN(c2nccc3oc(-c4cnc5ccc(OCCCS(C)(=O)=O)nn45)cc23)CC1 [III-43, 3-[4-(4-Methylpiperazin-1-yl)furo[3,2-c]pyridin-2-yl]-6-[3-(methylsulfonyl)-propoxy]imidazo[1,2-b]pyridazine] | 5.7 | 5.3
